Reference: patent US20220049283A1, “Method of detecting SARS-CoV-2 cleavage targeted proprotein convertase and facilitated protease activity” (priority 2020, published 2022)

Tested on: SARS-CoV-2 specific substrate (S1/S2 boundary peptide)
Format: biochemical
Conditions: substrate 10 ng/well, 25 min incubation, OD 450 nm, FIG. 4

Substance: trypsin
- lowest amount of enzyme from which cleavage activity can be detected: 10 ng
